Measurements: patent US20100305074A1, “NIACIN-BASED PHARMACEUTICAL COMPOSITIONS” (priority 2007, published 2010)

Tests used:
[1] = system: patients with debilitating flushing on sustained-release niacin therapy; assay: Prevention of flushing in patients on sustained-release niacin therapy (Examples 1 and 3); type: in vivo, human; conditions: thirteen patients initiating sustained-release niacin; Aspirin 81 mg for prevention of flushing
[2] = system: patients who developed hyperuricemia while on niacin therapy; assay: Hyperuricemia on niacin therapy controlled with allopurinol (Example 7); conditions: daily dosing 25 to 200 mg to control hyperuricemia
Method: Two females and 15 males were given allopurinol to control the hyperuricemia (daily dosing ranged from 25 to 200 mg).

[3] = system: patients with niacin-induced pruritis; assay: Treatment of niacin-induced pruritis with an H-1 blocking agent (Example 6); type: in vivo, human; conditions: among the seven successful patients; morning dosing (cetrizine, fexofenadine) or evening dosing (diphenhydramine)
Method: Nine patients with niacin-induced pruritis were treated by recommending an H-1 blocking agent.

[4] = system: men with low HDL and coronary artery disease; conditions: in combination with other lipid medications; HATS trial, N Engl J Med 345:1583-1592; cited from earlier work

SMILES	effect on niacin-induced pruritis [3]	also measured
CC(=O)Oc1ccccc1C(=O)O [Aspirin]	–	flushing despite prevention [1]: continued to have debilitating flushing
Oc1ncnc2[nH]ncc12 [allopurinol]	–	continuation of niacin therapy [2]: All were able to continue niacin therapy
O=C(O)COCCN1CCN(C(c2ccccc2)c2ccc(Cl)cc2)CC1 (stereo not drawn) [cetrizine]	resolution of pruritis	–
CN(C)CCOC(c1ccccc1)c1ccccc1 [diphenhydramine]	resolution of pruritis	–
CC(C)(C(=O)O)c1ccc(C(O)CCCN2CCC(C(O)(c3ccccc3)c3ccccc3)CC2)cc1 (stereo not drawn) [fexofenadine]	resolution of pruritis	–
O=C(O)c1cccnc1 [niacin, 3-pyridinecarboxylic acid]	–	lowering of the incidence of cardiovascular events (heart attacks, strokes, and sudden death) [4]: 60-90%
